Several values for one entry are separate records, joined by “and”; a condition that tells them apart may be missing. Equal values may be shown once. Entries after “also recorded” stand apart in the source; their conditions may differ. Where a name gives a salt, the structure may show the parent alone. Read-outs that look alike come from different tables or passages of the source.
Columns and labels:
PeaDOP2A receptor [1] = biological target: T1, PeaDOP2A receptor (Periplaneta americana, UniProt V6DNI7); experiment: cAMP production in HEK 293 cells stably expressing PeaDOP2A; format: cell-based; settings: for effect on dopamine-induced increase in [cAMP]i (antagonist, in words): co-incubation with dopamine; for effect on [cAMP]i (agonist, in words): ligand 10 μM
T1 sequence (V6DNI7 entry or part of it): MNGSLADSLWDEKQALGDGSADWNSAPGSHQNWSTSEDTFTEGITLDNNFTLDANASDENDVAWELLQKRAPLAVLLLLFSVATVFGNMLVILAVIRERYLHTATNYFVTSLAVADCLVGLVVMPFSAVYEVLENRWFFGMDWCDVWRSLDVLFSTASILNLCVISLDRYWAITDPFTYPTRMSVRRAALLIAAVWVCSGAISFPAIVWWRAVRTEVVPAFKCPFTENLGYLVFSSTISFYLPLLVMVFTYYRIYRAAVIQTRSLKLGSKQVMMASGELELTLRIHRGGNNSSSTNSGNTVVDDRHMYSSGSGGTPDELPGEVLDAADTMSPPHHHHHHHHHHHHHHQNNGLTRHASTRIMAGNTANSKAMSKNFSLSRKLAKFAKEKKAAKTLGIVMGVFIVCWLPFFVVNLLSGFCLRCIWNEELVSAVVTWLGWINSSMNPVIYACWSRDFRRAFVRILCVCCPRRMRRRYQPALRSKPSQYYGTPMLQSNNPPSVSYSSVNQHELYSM
Method: Stably transfected cells were selected in the presence of the antibiotic G418 at 0.8 mg/mL. Isolated foci were propagated and analyzed for the expression of PeaDOP2A/B-HA by immunocytochemistry and Western blot analysis with a commercial anti-HA antibody (anti-HA high affinity; Roche, Penzberg, Germany).

PeaDOP2B receptor [2] = experiment: cAMP production in HEK 293 cells stably expressing PeaDOP2B; format: cell-based, Periplaneta americana; settings: for change of intracellular cAMP level: biogenic amines 10 μM
Method: Approximately 8 μg pcPeadop2A/B-HA vector was separately introduced into exponentially growing HEK 293 cells (~4 × 10^5 cells per 5 cm Petri dish; Greiner, Frickenhausen, Germany) by a modified calcium phosphate method. Stably transfected cells were selected in the presence of the antibiotic G418 at 0.8 mg/mL. Isolated foci were propagated and analyzed for the expression of PeaDOP2A/B-HA by immunocytochemistry and Western blot analysis with a commercial anti-HA antibody (anti-HA high affinity; Roche, Penzberg, Germany).

[3] = biological target: Bombyx mori DOP2 receptor; settings: read-out: EC50 for dopamine-induced cAMP increase; cited from earlier work
PeaDOP2A receptor [4] = biological target: T1, PeaDOP2A receptor; settings: PeaDOP2A cell line
[5] = test system: non-transfected HEK 293 cells; settings: dopamine 1 nM to 10 μM
Method: Assays to determine the ability of PeaDOP2A/B-HA receptors to stimulate adenylyl cyclase activity were performed as described earlier [108]. PeaDOP2A/B-expressing cells were grown in minimal essential medium with GlutaMAX™ (Invitrogen, Karlsruhe, Germany), 10% (v/v) fetal bovine serum, 1% (v/v) non-essential amino acids, and antibiotics (all from Invitrogen, Karlsruhe, Germany). Cells were incubated with ligands for 30 min at 37 °C in the presence of the phosphodiesterase inhibitor isobutylmethylxanthine (IBMX; Sigma, Taufkirchen, Germany; final concentration 100 μM) and lysed by adding 0.5 mL ice-cold ethanol. After 1 h at 4 °C, the lysate was transferred to a reaction tube and lyophilized. The amount of cAMP produced was determined by using the TRK 432 cyclic AMP assay kit (GE Healthcare, Freiburg, Germany).

PeaDOP2B receptor [6] = settings: PeaDOP2B cell line
C. felis DOP2 receptor = settings: read-out: EC50 for dopamine-induced cAMP increase; cited from earlier work
[7] = biological target: D. melanogaster DOP2 receptor; settings: read-out: EC50 for dopamine-induced cAMP increase; cited from earlier work
[8] = biological target: A. mellifera DOP2 receptor; settings: read-out: EC50 for dopamine-induced cAMP increase; cited from earlier work
[9] = agonist, HEK 293 cells expressing PeaDOP2A, 30 min, 37 °C, 100 μM IBMX, read-out: EC50 for increasing [cAMP]i
[10] = agonist, log of molar EC50 (negative values), PeaDOP2A-expressing HEK 293 cells
[11] = antagonist, in the presence of 300 nM dopamine, PeaDOP2A-expressing HEK 293 cells, read-out: IC50 for blocking dopamine (300 nM)-induced cAMP increase
[12] = IC50 for blocking dopamine (300 nM)-induced cAMP increase, antagonist, in the presence of 300 nM dopamine, PeaDOP2A-expressing HEK 293 cells
[13] = log IC50, antagonist, log of molar IC50 (negative values), in the presence of 300 nM dopamine

In the case of Cl.Cl.OCCN1CCN(CCC=C2c3ccccc3Sc3ccc(C(F)(F)F)cc32)CC1 (mixture of isomers) [flupentixol, cis(Z)-flupentixol dihydrochloride], the “cAMP as percentage of the value with 300 nM dopamine (=100%)” value (PeaDOP2A receptor [1]; 10 μM antagonist in the presence of 300 nM dopamine, basal level […]) is reported as 7.0%, the “effect on dopamine-induced increase in [cAMP]i (antagonist, in words)” value (“effect on dopamine-induced increase” below) (PeaDOP2A receptor [1]; PeaDOP2A-expressing cells) is reported as “able to counteract the dopamine-induced increase in [cAMP]i fully” and the “effect on dopamine-induced increase” value (PeaDOP2A receptor [1]; PeaDOP2A-expressing cells, listed as cis(Z)-flupentixol) is reported as “abolished”. For the same compound, the “log IC50” value (PeaDOP2A receptor [1]; antagonist, log of molar IC50 (negative values), in the presence of 300 nM dopamine) was −8.189.
With NC1CCc2cc(O)c(O)cc2C1 (racemic) [6,7-ADTN, (±)-2-amino-6,7-dihydroxy-1,2,3,4-tetrahydronaphthalene] the “effect on [cAMP]i (agonist, in words)” value (PeaDOP2A receptor [1]; PeaDOP2A-expressing cells) was “lead to an increase in [cAMP]i; also recorded: mimicked”, the EC50 (PeaDOP2A receptor [1]; [9]) was 76.4 nM and the logEC50 (PeaDOP2A receptor [1]; [10]) was −7.117.
With C=CCN1CCc2c(cc(O)c(O)c2Cl)C(c2ccccc2)C1 (racemic) [6-chloro-APB, (±)-6-Chloro-7,8-dihydroxy-3-allyl-1-phenyl-2,3,4,5-tetrahydro-1H-3-benzazepine] the “effect on [cAMP]i (agonist, in words)” value (PeaDOP2A receptor [1]; PeaDOP2A-expressing cells) was “lead to an increase in [cAMP]i; also recorded: mimicked”, the EC50 (PeaDOP2A receptor [1]; [9]) was 382 nM and the logEC50 (PeaDOP2A receptor [1]; [10]) was −6.418.
For NCC(O)c1ccc(O)cc1 (racemic) [octopamine, (±)-octopamine hydrochloride], the “change of intracellular cAMP level” value (PeaDOP2B receptor [2]) was “None of the biogenic amines induced a change” and the “effect on [cAMP]i (agonist, in words)” value (PeaDOP2A receptor [1]; PeaDOP2A-expressing cells) was “no effect”.
With CN1CCc2cc(Cl)c(O)cc2[C@@H](c2ccccc2)C1 [SCH 23390, R(+)-SCH 23390 hydrochloride] the “effect on dopamine-induced increase” value (PeaDOP2A receptor [1]; PeaDOP2A-expressing cells) was “able to counteract the dopamine-induced increase in [cAMP]i fully”, the IC50 (PeaDOP2A receptor [1]; [11]) was 1790 nM and the IC50 (PeaDOP2A receptor [1]; antagonist, log of molar IC50 (negative values), in the presence of 300 nM dopamine, read-out: log IC50 (converted)) was 1790 nM.
For Oc1cc2c(cc1O)[C@@H](c1ccccc1)CNCC2 [SKF 38393, R(+)-SKF 38393 hydrochloride], the “effect on [cAMP]i (agonist, in words)” value (PeaDOP2A receptor [1]; PeaDOP2A-expressing cells) was “does not show any effect”.
With CN1CCc2cccc3c2[C@H]1Cc1ccc(O)c(O)c1-3 [apomorphine, apomorphine hydrochloride hemihydrate] the “effect on [cAMP]i (agonist, in words)” value (PeaDOP2A receptor [1]; PeaDOP2A-expressing cells) was “lead to an increase in [cAMP]i”.
In the case of CC(C)C[C@H]1C(=O)N2CCC[C@H]2[C@]2(O)O[C@](NC(=O)[C@@H]3C=C4c5cccc6[nH]c(Br)c(c56)C[C@H]4N(C)C3)(C(C)C)C(=O)N12 [bromocriptine, bromocriptine mesylate], the “effect on [cAMP]i (agonist, in words)” value (PeaDOP2A receptor [1]; PeaDOP2A-expressing cells) is reported as “fails to increase [cAMP]i”.
With CC(C)(C)[C@]1(O)CCN2C[C@H]3c4ccccc4CCc4cccc(c43)[C@@H]2C1 [butaclamol, S(+)-butaclamol hydrochloride] the IC50 (PeaDOP2A receptor [1]; [12]) was 326 nM, the “effect on dopamine-induced increase” value (PeaDOP2A receptor [1]; PeaDOP2A-expressing cells) was “able to counteract the dopamine-induced increase in [cAMP]i fully” and the IC50 (PeaDOP2A receptor [1]; [13]) was 326 nM.
For CN(C)CCCN1c2ccccc2Sc2ccc(Cl)cc21 [chlorpromazine, Chlorpromazine hydrochloride], the IC50 (PeaDOP2A receptor [1]; [12]) was 2.7 nM, the “effect on dopamine-induced increase” value (PeaDOP2A receptor [1]; PeaDOP2A-expressing cells) was “able to counteract the dopamine-induced increase in [cAMP]i fully; also recorded: abolished” and the IC50 (PeaDOP2A receptor [1]; [13]) was 2.7 nM.
For NCCc1ccc(O)c(O)c1 [dopamine, dopamine hydrochloride], the “change of intracellular cAMP level” value (PeaDOP2B receptor [2]) was “None of the biogenic amines induced a change”, the “effect on [cAMP]i, dose-response” value (PeaDOP2B receptor [2]; dopamine 1 nM to 10 μM) was “None of the dopamine concentrations showed an effect; also recorded: does not affect [cAMP]i” and the cAMP production (PeaDOP2A receptor [1]; 10 μM ligand, PeaDOP2A-expressing cells) was 300 pmol cAMP/mg protein. The EC50 (PeaDOP2A receptor [1]; EC50 for increasing [cAMP]i, agonist, HEK 293 cells expressing PeaDOP2A, 30 min, 37 °C, 100 μM IBMX) was 160 nM and 163 nM, the “concentration for maximal stimulation of cAMP synthesis” value (PeaDOP2A receptor [1]; PeaDOP2A-expressing cells, dose range 1 nM to 10 μM) was ≥ 1 µM and the “effect on [cAMP]i (agonist, in words)” value (PeaDOP2A receptor [1]; PeaDOP2A-expressing cells) was “leads to an increase in [cAMP]i”. The EC50 (PeaDOP2A receptor [1]; logEC50, agonist, log of molar EC50 (negative values), PeaDOP2A-expressing HEK 293 cells) was 166 nM and 163 nM, the EC50 [3] was 1300 nM and the “change in [Ca2+]i upon dopamine incubation” value (PeaDOP2A receptor [4]) was “Neither PeaDOP2 receptor cause changes in [Ca^2+]i”. The “effect on [cAMP]i, dose-response” value [5] was “None of the dopamine concentrations showed an effect”, the “change in [Ca2+]i upon dopamine incubation” value (PeaDOP2B receptor [6]) was “Neither PeaDOP2 receptor cause changes in [Ca^2+]i” and the EC50 (C. felis DOP2 receptor) was 2400 nM. For the same compound, the EC50 [7] was 350 nM and the EC50 [8] was 2200 nM.
OCCN1CCN(CC/C=C2/c3ccccc3Sc3ccc(C(F)(F)F)cc32)CC1 [flupentixol, cis(Z)-flupentixol dihydrochloride] showed an IC50 (PeaDOP2A receptor [1]; [11]) of 6.5 nM.
In the case of NCCc1c[nH]cn1 [histamine, histamine dihydrochloride], the “change of intracellular cAMP level” value (PeaDOP2B receptor [2]) is reported as “None of the biogenic amines induced a change” and the “effect on [cAMP]i (agonist, in words)” value (PeaDOP2A receptor [1]; PeaDOP2A-expressing cells) is reported as “no effect”.
In the case of Cl.NCCc1c[nH]c2ccc(O)cc12 [serotonin, 5-hydroxytryptamine hydrochloride], the “change of intracellular cAMP level” value (PeaDOP2B receptor [2]) is reported as “None of the biogenic amines induced a change” and the “effect on [cAMP]i (agonist, in words)” value (PeaDOP2A receptor [1]; PeaDOP2A-expressing cells) is reported as “no effect”.
With NCCc1ccc(O)cc1 [tyramine, tyramine hydrochloride] the “change of intracellular cAMP level” value (PeaDOP2B receptor [2]) was “None of the biogenic amines induced a change” and the “effect on [cAMP]i (agonist, in words)” value (PeaDOP2A receptor [1]; PeaDOP2A-expressing cells) was “no effect”.

— article PMC3907829, “Characterization of an Invertebrate-Type Dopamine Receptor of the American Cockroach, Periplaneta americana” (International Journal of Molecular Sciences, 2014)
